{
  "source": "PubChem BioAssay (NCI)",
  "note": "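Step 1: Grow cells in 96-well plates. Step 2: Expose to compound for 48 hours at 5 concentrations. Step 3: Interpolate endpoints linearly; if unreached, use highest concentration. Definition used: TGI = concentration required for complete inhibition of growth.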",
  "data": [
    {"tested_on": "OVCAR-8 ovarian", "assay": "growth of human tumour cells (NCI), 48 h", "units": {"TGI": "µM"}, "values": [
      {"smiles": "CC(=O)C(C(=O)c1ccc(C)cc1)[C@@H]1OC(C)(C)O[C@@H]1[C@H]1COC(C)(C)O1", "note": "(stereo partly specified)", "TGI": "> 50.7"},
      {"smiles": "CC12CCCC(O)C1CCC1=CC3(CCC12)SCCS3", "note": "(stereo unspecified)", "TGI": "> 10"},
      {"smiles": "CCCCNC(=S)Nc1nc(C(=O)NNC(=S)NCC)cs1", "TGI": "> 100"}
    ]},
    {"tested_on": "SK-MEL-5 melanoma", "assay": "growth of human tumour cells (NCI), 48 h", "units": {"TGI": "µM"}, "values": [
      {"smiles": "COC(=O)C1=CC2C(=O)c3ccccc3C1(c1ccccc1)N2C1CCCCC1", "note": "(stereo unspecified)", "TGI": 22},
      {"smiles": "O=C(O)CC1OCC=C2CN3CCC45c6ccccc6NC4C1C2CC35", "note": "(stereo unspecified)", "TGI": "> 100"},
      {"smiles": "C=C(C)C1CC=C(C)C(=O)C1", "note": "(stereo unspecified)", "TGI": "> 100"},
      {"smiles": "N#Cc1ccc(NC(=NCC(=O)O)Nc2cccc3ccccc23)cc1", "TGI": "> 10"},
      {"smiles": "CC(=O)c1c(-c2ccc(Cl)cc2)c(-c2ccc(Cl)cc2)n[nH]c1=O", "TGI": "> 100"},
      {"smiles": "CC(=O)C(C(=O)c1ccc(C)cc1)[C@@H]1OC(C)(C)O[C@@H]1[C@H]1COC(C)(C)O1", "note": "(stereo partly specified)", "TGI": 29.2},
      {"smiles": "CC12CCCC(O)C1CCC1=CC3(CCC12)SCCS3", "note": "(stereo unspecified)", "TGI": "> 10"},
      {"smiles": "CCCCNC(=S)Nc1nc(C(=O)NNC(=S)NCC)cs1", "TGI": "> 100"}
    ]},
    {"tested_on": "SNB-75 CNS", "assay": "growth of human tumour cells (NCI), 48 h", "units": {"TGI": "µM"}, "values": [
      {"smiles": "COC(=O)C1=CC2C(=O)c3ccccc3C1(c1ccccc1)N2C1CCCCC1", "note": "(stereo unspecified)", "TGI": "> 100"},
      {"smiles": "O=C(O)CC1OCC=C2CN3CCC45c6ccccc6NC4C1C2CC35", "note": "(stereo unspecified)", "TGI": "> 100"},
      {"smiles": "C=C(C)C1CC=C(C)C(=O)C1", "note": "(stereo unspecified)", "TGI": "> 100"},
      {"smiles": "N#Cc1ccc(NC(=NCC(=O)O)Nc2cccc3ccccc23)cc1", "TGI": "> 10"},
      {"smiles": "CC(=O)C(C(=O)c1ccc(C)cc1)[C@@H]1OC(C)(C)O[C@@H]1[C@H]1COC(C)(C)O1", "note": "(stereo partly specified)", "TGI": "> 59.2"},
      {"smiles": "CC12CCCC(O)C1CCC1=CC3(CCC12)SCCS3", "note": "(stereo unspecified)", "TGI": "> 10"},
      {"smiles": "CCCCNC(=S)Nc1nc(C(=O)NNC(=S)NCC)cs1", "TGI": "> 100"}
    ]},
    {"tested_on": "OVCAR-4 ovarian", "assay": "growth of human tumour cells (NCI), 48 h", "units": {"TGI": "µM"}, "values": [
      {"smiles": "COC(=O)C1=CC2C(=O)c3ccccc3C1(c1ccccc1)N2C1CCCCC1", "note": "(stereo unspecified)", "TGI": 91.6},
      {"smiles": "O=C(O)CC1OCC=C2CN3CCC45c6ccccc6NC4C1C2CC35", "note": "(stereo unspecified)", "TGI": "> 100"},
      {"smiles": "C=C(C)C1CC=C(C)C(=O)C1", "note": "(stereo unspecified)", "TGI": "> 100"},
      {"smiles": "CC(=O)c1c(-c2ccc(Cl)cc2)c(-c2ccc(Cl)cc2)n[nH]c1=O", "TGI": 94.8},
      {"smiles": "CC(=O)C(C(=O)c1ccc(C)cc1)[C@@H]1OC(C)(C)O[C@@H]1[C@H]1COC(C)(C)O1", "note": "(stereo partly specified)", "TGI": "> 26.3"},
      {"smiles": "CC12CCCC(O)C1CCC1=CC3(CCC12)SCCS3", "note": "(stereo unspecified)", "TGI": "> 10"},
      {"smiles": "CCCCNC(=S)Nc1nc(C(=O)NNC(=S)NCC)cs1", "TGI": "> 100"}
    ]},
    {"tested_on": "NCI-H226 lung", "assay": "growth of human tumour cells (NCI), 48 h", "units": {"TGI": "µM"}, "values": [
      {"smiles": "COC(=O)C1=CC2C(=O)c3ccccc3C1(c1ccccc1)N2C1CCCCC1", "note": "(stereo unspecified)", "TGI": 84.1},
      {"smiles": "O=C(O)CC1OCC=C2CN3CCC45c6ccccc6NC4C1C2CC35", "note": "(stereo unspecified)", "TGI": "> 100"},
      {"smiles": "C=C(C)C1CC=C(C)C(=O)C1", "note": "(stereo unspecified)", "TGI": "> 100"},
      {"smiles": "CC(=O)c1c(-c2ccc(Cl)cc2)c(-c2ccc(Cl)cc2)n[nH]c1=O", "TGI": "> 100"}
    ]},
    {"tested_on": "MDA-MB-231 breast", "assay": "growth of human tumour cells (NCI), 48 h", "units": {"TGI": "µM"}, "values": [
      {"smiles": "COC(=O)C1=CC2C(=O)c3ccccc3C1(c1ccccc1)N2C1CCCCC1", "note": "(stereo unspecified)", "TGI": 42.8},
      {"smiles": "O=C(O)CC1OCC=C2CN3CCC45c6ccccc6NC4C1C2CC35", "note": "(stereo unspecified)", "TGI": "> 100"},
      {"smiles": "C=C(C)C1CC=C(C)C(=O)C1", "note": "(stereo unspecified)", "TGI": "> 100"},
      {"smiles": "N#Cc1ccc(NC(=NCC(=O)O)Nc2cccc3ccccc23)cc1", "TGI": "> 10"},
      {"smiles": "CC(=O)c1c(-c2ccc(Cl)cc2)c(-c2ccc(Cl)cc2)n[nH]c1=O", "TGI": 86.4},
      {"smiles": "CC(=O)C(C(=O)c1ccc(C)cc1)[C@@H]1OC(C)(C)O[C@@H]1[C@H]1COC(C)(C)O1", "note": "(stereo partly specified)", "TGI": "> 35.1"},
      {"smiles": "CC12CCCC(O)C1CCC1=CC3(CCC12)SCCS3", "note": "(stereo unspecified)", "TGI": "> 10"},
      {"smiles": "CCCCNC(=S)Nc1nc(C(=O)NNC(=S)NCC)cs1", "TGI": "> 100"}
    ]},
    {"tested_on": "RXF 393 renal", "assay": "growth of human tumour cells (NCI), 48 h", "units": {"TGI": "µM"}, "values": [
      {"smiles": "COC(=O)C1=CC2C(=O)c3ccccc3C1(c1ccccc1)N2C1CCCCC1", "note": "(stereo unspecified)", "TGI": 24.6},
      {"smiles": "O=C(O)CC1OCC=C2CN3CCC45c6ccccc6NC4C1C2CC35", "note": "(stereo unspecified)", "TGI": "> 100"},
      {"smiles": "N#Cc1ccc(NC(=NCC(=O)O)Nc2cccc3ccccc23)cc1", "TGI": "> 10"},
      {"smiles": "CC(=O)c1c(-c2ccc(Cl)cc2)c(-c2ccc(Cl)cc2)n[nH]c1=O", "TGI": "> 100"},
      {"smiles": "CC(=O)C(C(=O)c1ccc(C)cc1)[C@@H]1OC(C)(C)O[C@@H]1[C@H]1COC(C)(C)O1", "note": "(stereo partly specified)", "TGI": 36.4}
    ]},
    {"tested_on": "K-562 leukemia", "assay": "growth of human tumour cells (NCI), 48 h", "units": {"TGI": "µM"}, "values": [
      {"smiles": "COC(=O)C1=CC2C(=O)c3ccccc3C1(c1ccccc1)N2C1CCCCC1", "note": "(stereo unspecified)", "TGI": "> 100"},
      {"smiles": "O=C(O)CC1OCC=C2CN3CCC45c6ccccc6NC4C1C2CC35", "note": "(stereo unspecified)", "TGI": "> 100"},
      {"smiles": "C=C(C)C1CC=C(C)C(=O)C1", "note": "(stereo unspecified)", "TGI": "> 100"},
      {"smiles": "N#Cc1ccc(NC(=NCC(=O)O)Nc2cccc3ccccc23)cc1", "TGI": "> 10"},
      {"smiles": "CC(=O)c1c(-c2ccc(Cl)cc2)c(-c2ccc(Cl)cc2)n[nH]c1=O", "TGI": "> 100"},
      {"smiles": "CC(=O)C(C(=O)c1ccc(C)cc1)[C@@H]1OC(C)(C)O[C@@H]1[C@H]1COC(C)(C)O1", "note": "(stereo partly specified)", "TGI": "> 32"},
      {"smiles": "CC12CCCC(O)C1CCC1=CC3(CCC12)SCCS3", "note": "(stereo unspecified)", "TGI": "> 10"}
    ]},
    {"tested_on": "NCI/ADR-RES ovarian", "assay": "growth of human tumour cells (NCI), 48 h", "units": {"TGI": "µM"}, "values": [
      {"smiles": "COC(=O)C1=CC2C(=O)c3ccccc3C1(c1ccccc1)N2C1CCCCC1", "note": "(stereo unspecified)", "TGI": "> 100"},
      {"smiles": "O=C(O)CC1OCC=C2CN3CCC45c6ccccc6NC4C1C2CC35", "note": "(stereo unspecified)", "TGI": "> 100"}
    ]}
  ]
}
